In patent US9861099B2, “Composition for enhancing plant disease control effect of monosaccharide” (MITSUI CHEMICALS AGRO, INC., priority 2013, dated 2018):

These compounds were tested on Pseudoperonospora cubensis (assay: Cucumber downy mildew (CDM) control test). Conditions: Table 8: D-tagatose liquid preparation with assistant (5 parts), 10-fold dilution (D-tagatose 0.5%+assistant 0.5%); improvement vs D-tagatose only.
Assay type: in vivo
OC[C@H]1O[C@H](O[C@H]2[C@H](O)[C@@H](O)C(O)O[C@@H]2CO)[C@H](O)[C@@H](O)[C@@H]1O (mixture of isomers) [Maltose] was tested, and the “Evaluation Score CDM” value was 1 (Improvement in preventive value of 1 to less than 10).
For C[N+](C)(C)CC(O)CC(=O)[O-] (racemic) [DL-carnitine], the “Evaluation Score CDM” value was 2 (Improvement in preventive value of 10 to less than 20).
For CC(=O)O [Acetic acid], the “Evaluation Score CDM” value was 1 (Improvement in preventive value of 1 to less than 10).
For Nc1ncnc2[nH]cnc12 [Adenine], the “Evaluation Score CDM” value was 0.
Nc1ncnc2c1ncn2[C@@H]1O[C@H](CO)[C@@H](O)[C@H]1O [Adenosine] was tested, and the “Evaluation Score CDM” value was 0.
For OC[C@@H](O)[C@@H](O)[C@@H](O)[C@@H](O)CO [Allitol], the “Evaluation Score CDM” value was 2 (Improvement in preventive value of 10 to less than 20).
O=C[C@H](O)[C@@H](O)[C@H](O[C@@H]1O[C@H](CO)[C@@H](O)[C@H](O)[C@H]1O)[C@H](O)CO [Cellobiose] was tested, and the “Evaluation Score CDM” value was 1 (Improvement in preventive value of 1 to less than 10).
Nc1ccn([C@@H]2O[C@H](CO)[C@@H](O)[C@H]2O)c(=O)n1 [Cytidine] was tested, and the “Evaluation Score CDM” value was 1 (Improvement in preventive value of 1 to less than 10).
For Nc1cc[nH]c(=O)n1 [Cytosine], the “Evaluation Score CDM” value was 0.
For OC[C@H]1OC(O)[C@@H](O)[C@H](O)[C@@H]1O (stereo partly drawn) [D-altrose], the “Evaluation Score CDM” value was 4 (Improvement in preventive value of 30 to less than 40).
For O=C[C@@H](O)[C@H](O)[C@H](O)CO [D-arabinose], the “Evaluation Score CDM” value was 1 (Improvement in preventive value of 1 to less than 10).
In the case of O=C(CO)[C@@H](O)[C@H](O)[C@H](O)CO [D-fructose], the “Evaluation Score CDM” value is reported as 2 (Improvement in preventive value of 10 to less than 20).
For C[C@@H](O)[C@H](O)[C@H](O)[C@@H](O)C=O [D-fucose], the “Evaluation Score CDM” value was 2 (Improvement in preventive value of 10 to less than 20).
With O=C[C@H](O)[C@@H](O)[C@@H](O)[C@H](O)C(=O)O [D-galacturonic acid] the “Evaluation Score CDM” value was 3 (Improvement in preventive value of 20 to less than 30).
In the case of O=C1O[C@H](CO)[C@@H](O)[C@H](O)[C@H]1O [D-gluconolactone], the “Evaluation Score CDM” value is reported as 2 (Improvement in preventive value of 10 to less than 20).
In the case of O=C[C@H](O)CO [D-glyceraldehyde], the “Evaluation Score CDM” value is reported as 4 (Improvement in preventive value of 30 to less than 40).
For OC[C@@H](O)[C@@H](O)[C@H](O)[C@H](O)CO [D-mannitol], the “Evaluation Score CDM” value was 1 (Improvement in preventive value of 1 to less than 10).
For O=C[C@H](O)[C@H](O)[C@H](O)CO [D-ribose], the “Evaluation Score CDM” value was 2 (Improvement in preventive value of 10 to less than 20).
In the case of OC[C@@H](O)[C@@H](O)[C@H](O)[C@@H](O)CO [D-sorbitol], the “Evaluation Score CDM” value is reported as 1 (Improvement in preventive value of 1 to less than 10).
In the case of O=C[C@H](O)[C@@H](O)[C@H](O)CO [D-xylose], the “Evaluation Score CDM” value is reported as 1 (Improvement in preventive value of 1 to less than 10).
With O=C(CO)[C@@H](O)[C@H](O)CO [D-xylulose] the “Evaluation Score CDM” value was 1 (Improvement in preventive value of 1 to less than 10).
With O=CC[C@H](O)[C@H](O)CO [Formula 2-deoxy-D-ribose, 2-deoxy-D-ribose] the “Evaluation Score CDM” value was 4 (Improvement in preventive value of 30 to less than 40).
For Nc1nc2c(ncn2[C@@H]2O[C@H](CO)[C@@H](O)[C@H]2O)c(=O)[nH]1 [Guanosine], the “Evaluation Score CDM” value was 0.
With NC(=O)C[C@H](N)C(=O)O [L-asparagine] the “Evaluation Score CDM” value was 1 (Improvement in preventive value of 1 to less than 10).
In the case of N[C@@H](CS)C(=O)O [L-cysteine], the “Evaluation Score CDM” value is reported as 3 (Improvement in preventive value of 20 to less than 30).
In the case of C[C@@H]1OC(O)[C@@H](O)[C@H](O)[C@@H]1O (stereo partly drawn) [L-fucose], the “Evaluation Score CDM” value is reported as 2 (Improvement in preventive value of 10 to less than 20).

Same assay, conditions: in vivo
O=C(O)c1ccccc1 [Benzoic acid] was tested, and the “Evaluation Score CDM” value was 0.
For O=C(O)CCCC(=O)O [Glutaric acid], the “Evaluation Score CDM” value was 0.
In the case of Nc1nc2nc[nH]c2c(=O)[nH]1 [Guanine], the “Evaluation Score CDM” value is reported as 0.
